According to ChEMBL document CHEMBL1135773, “Purine and pyrimidine (P2) receptors as drug targets” (J Med Chem, 2002):

Experiments:
P2Y purinoceptor 12 = P2Y purinoceptor 12 (Rattus norvegicus, UniProt Q9EPX4); test: Antagonist activity against phospholipase C coupled rat P2Y purinoceptor 12 (P2Y12); type: functional
P2Y purinoceptor 2 = P2Y purinoceptor 2 (Homo sapiens, UniProt P41231); test: Evaluated for agonist activity against phospholipase C coupled recombinant human P2Y purinoceptor 2 (P2Y2); type: functional
P2Y purinoceptor 2, sequence (P41231 whole entry): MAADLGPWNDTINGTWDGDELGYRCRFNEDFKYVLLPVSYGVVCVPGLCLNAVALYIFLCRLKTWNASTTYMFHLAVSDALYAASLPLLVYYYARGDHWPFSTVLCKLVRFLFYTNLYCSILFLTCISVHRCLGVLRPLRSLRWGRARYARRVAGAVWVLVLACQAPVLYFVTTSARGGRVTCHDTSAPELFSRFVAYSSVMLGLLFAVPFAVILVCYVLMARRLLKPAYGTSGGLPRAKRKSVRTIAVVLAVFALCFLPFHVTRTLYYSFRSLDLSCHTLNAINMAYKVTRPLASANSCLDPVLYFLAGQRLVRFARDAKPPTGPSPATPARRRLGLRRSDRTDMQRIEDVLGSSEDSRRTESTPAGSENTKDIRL

P2X purinoceptor 2 [1] = biological target: P2X purinoceptor 2 (Homo sapiens, UniProt Q9UBL9); test: The compound was evaluated for antagonist activity against recombinant human receptor P2X purinoceptor 2 (P2X2 ); type: functional
P2X purinoceptor 2 (Homo sapiens, UniProt Q9UBL9), sequence (Q9UBL9 whole entry): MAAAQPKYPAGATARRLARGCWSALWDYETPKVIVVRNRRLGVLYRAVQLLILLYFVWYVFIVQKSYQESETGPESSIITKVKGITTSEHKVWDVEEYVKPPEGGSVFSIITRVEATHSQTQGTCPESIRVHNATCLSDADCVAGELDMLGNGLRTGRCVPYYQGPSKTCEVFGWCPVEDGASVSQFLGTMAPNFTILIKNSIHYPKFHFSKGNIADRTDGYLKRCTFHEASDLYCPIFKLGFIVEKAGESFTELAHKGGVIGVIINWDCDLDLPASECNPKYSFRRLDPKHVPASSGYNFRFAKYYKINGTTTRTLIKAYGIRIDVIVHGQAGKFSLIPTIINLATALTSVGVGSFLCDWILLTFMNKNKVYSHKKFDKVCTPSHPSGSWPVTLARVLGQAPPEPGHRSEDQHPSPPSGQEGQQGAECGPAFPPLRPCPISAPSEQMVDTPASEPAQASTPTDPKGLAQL

P2X purinoceptor 4 [2] = biological target: T1, P2X purinoceptor 4 (Rattus norvegicus, UniProt P51577); test: Antagonist activity against recombinant rat P2X purinoceptor 4 (P2X4) at 30 uM, expressed in Xenopus oocytes; type: functional, cell-based, Oocyte
T1 sequence (P51577 whole entry): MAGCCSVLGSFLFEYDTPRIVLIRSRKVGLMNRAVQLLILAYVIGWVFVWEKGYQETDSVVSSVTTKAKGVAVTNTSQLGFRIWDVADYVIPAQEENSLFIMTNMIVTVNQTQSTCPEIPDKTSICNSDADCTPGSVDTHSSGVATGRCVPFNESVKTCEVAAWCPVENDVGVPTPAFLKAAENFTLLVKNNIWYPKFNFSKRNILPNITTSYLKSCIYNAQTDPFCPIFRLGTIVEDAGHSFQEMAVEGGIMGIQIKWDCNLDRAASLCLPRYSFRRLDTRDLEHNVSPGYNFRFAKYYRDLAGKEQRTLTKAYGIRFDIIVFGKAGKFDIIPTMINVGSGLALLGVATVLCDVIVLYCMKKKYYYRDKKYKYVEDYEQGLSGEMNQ

P2X purinoceptor 6 = P2X purinoceptor 6 (Rattus norvegicus, UniProt P51579); test: Antagonist activity against recombinant rat P2X purinoceptor 6 (P2X6 ); type: functional
P2X purinoceptor 6, sequence (P51579 whole entry): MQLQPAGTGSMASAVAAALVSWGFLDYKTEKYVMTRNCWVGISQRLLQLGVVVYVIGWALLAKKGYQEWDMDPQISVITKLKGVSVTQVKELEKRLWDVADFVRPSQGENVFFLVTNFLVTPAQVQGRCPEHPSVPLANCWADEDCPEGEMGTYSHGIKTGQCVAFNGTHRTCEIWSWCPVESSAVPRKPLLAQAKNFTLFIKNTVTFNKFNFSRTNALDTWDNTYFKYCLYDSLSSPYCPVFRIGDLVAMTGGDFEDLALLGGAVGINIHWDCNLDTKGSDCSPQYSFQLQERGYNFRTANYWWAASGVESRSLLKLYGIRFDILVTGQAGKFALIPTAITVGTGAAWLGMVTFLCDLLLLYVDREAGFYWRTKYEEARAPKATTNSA

P2X purinoceptor 1 [3] = biological target: T2, P2X purinoceptor 1 (Homo sapiens, UniProt P51575); test: Antagonist activity against recombinant human P2X purinoceptor 1 (P2X1 ); type: functional
T2 sequence (P51575 whole entry): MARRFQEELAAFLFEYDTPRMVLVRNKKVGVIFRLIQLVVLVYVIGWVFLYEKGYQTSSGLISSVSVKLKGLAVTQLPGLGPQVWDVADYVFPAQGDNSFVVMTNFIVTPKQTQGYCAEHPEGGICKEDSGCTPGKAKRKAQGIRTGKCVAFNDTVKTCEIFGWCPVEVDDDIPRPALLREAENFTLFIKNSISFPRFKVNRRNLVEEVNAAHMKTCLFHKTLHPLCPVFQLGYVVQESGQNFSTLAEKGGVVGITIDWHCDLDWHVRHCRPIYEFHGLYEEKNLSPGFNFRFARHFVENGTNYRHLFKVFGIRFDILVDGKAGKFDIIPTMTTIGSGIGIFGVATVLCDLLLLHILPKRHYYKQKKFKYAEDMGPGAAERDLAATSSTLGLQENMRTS

P2X purinoceptor 3 [4] = biological target: T3, P2X purinoceptor 3 (Homo sapiens, UniProt P56373); test: Antagonist activity against recombinant human P2X purinoceptor 3 (P2X3 ); type: functional
T3 sequence (P56373 whole entry): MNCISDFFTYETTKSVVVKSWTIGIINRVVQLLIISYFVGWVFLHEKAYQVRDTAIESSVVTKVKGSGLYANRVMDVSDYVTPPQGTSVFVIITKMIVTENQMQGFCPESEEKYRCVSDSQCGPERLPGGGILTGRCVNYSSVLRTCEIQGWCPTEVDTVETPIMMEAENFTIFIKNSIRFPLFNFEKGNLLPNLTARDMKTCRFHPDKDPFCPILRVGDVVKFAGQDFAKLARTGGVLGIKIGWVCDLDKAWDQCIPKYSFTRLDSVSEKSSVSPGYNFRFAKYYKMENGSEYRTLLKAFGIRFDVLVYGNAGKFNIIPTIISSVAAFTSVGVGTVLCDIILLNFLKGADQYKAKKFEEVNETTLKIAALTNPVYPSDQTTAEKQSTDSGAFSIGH

P2X purinoceptor 5 = biological target: T4, P2X purinoceptor 5 (Rattus norvegicus, UniProt P51578); test: Antagonist activity against recombinant rat P2X purinoceptor 5 (P2X5); type: functional
T4 sequence (P51578 whole entry): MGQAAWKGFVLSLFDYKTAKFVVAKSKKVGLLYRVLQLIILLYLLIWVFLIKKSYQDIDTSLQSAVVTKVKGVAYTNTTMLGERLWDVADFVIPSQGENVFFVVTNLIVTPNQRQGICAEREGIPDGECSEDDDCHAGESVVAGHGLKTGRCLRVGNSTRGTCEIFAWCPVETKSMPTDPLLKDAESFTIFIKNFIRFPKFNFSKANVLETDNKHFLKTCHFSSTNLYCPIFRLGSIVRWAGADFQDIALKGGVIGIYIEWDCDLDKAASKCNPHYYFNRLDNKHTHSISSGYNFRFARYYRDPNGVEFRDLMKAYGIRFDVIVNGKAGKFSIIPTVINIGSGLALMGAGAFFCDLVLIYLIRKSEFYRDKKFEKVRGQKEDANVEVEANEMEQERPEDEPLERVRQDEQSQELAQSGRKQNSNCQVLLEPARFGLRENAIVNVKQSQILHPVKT

P2X purinoceptor 1 [5] = biological target: T5, P2X purinoceptor 1 (Rattus norvegicus, UniProt P47824); test: The compound was evaluated for antagonist activity against recombinant rat P2X purinoceptor 1 (P2X1); type: functional
T5 sequence (P47824 whole entry): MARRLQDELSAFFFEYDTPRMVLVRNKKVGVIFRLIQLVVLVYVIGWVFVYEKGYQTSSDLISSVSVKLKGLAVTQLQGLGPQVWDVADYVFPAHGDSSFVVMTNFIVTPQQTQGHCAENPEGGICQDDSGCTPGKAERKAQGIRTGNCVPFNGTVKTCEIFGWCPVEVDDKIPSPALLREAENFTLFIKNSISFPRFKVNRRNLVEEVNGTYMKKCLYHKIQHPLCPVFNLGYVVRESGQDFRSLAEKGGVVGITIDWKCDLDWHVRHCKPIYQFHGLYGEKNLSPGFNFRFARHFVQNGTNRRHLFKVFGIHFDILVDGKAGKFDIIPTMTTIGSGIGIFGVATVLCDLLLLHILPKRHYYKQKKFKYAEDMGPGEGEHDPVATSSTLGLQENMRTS

P2X purinoceptor 3 [6] = biological target: T3, P2X purinoceptor 3; test: The compound was evaluated for antagonist activity against recombinant human P2X purinoceptor 3 (P2X3 ); type: functional
P2Y purinoceptor 6 = P2Y purinoceptor 6 (Homo sapiens, UniProt Q15077); test: The compound was evaluated for agonist activity against phospholipase C coupled recombinant human P2Y purinoceptor 6 (P2Y6); type: functional
P2Y purinoceptor 6, sequence (Q15077 whole entry): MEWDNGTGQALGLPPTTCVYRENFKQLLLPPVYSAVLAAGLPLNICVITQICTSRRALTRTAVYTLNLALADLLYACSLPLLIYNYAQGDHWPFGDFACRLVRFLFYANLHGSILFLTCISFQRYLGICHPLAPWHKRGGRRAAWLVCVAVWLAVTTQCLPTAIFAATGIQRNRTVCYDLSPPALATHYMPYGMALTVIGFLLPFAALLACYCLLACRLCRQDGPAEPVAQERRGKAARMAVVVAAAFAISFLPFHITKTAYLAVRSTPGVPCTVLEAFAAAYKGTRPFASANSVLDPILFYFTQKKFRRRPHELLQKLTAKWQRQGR

P2X purinoceptor 4 [7] = biological target: T1, P2X purinoceptor 4; test: Antagonist activity against recombinant rat P2X purinoceptor 4 (P2X4) at 3 uM, expressed in Xenopus oocytes; type: functional, cell-based, Oocyte
[8] = biological target: P2X purinoceptor 7 (Homo sapiens) (UniProt Q99572); test: The compound was evaluated for antagonist activity against recombinant human P2X purinoceptor 7 (P2X7); type: functional
P2X purinoceptor 7 (Homo sapiens), sequence (Q99572 whole entry): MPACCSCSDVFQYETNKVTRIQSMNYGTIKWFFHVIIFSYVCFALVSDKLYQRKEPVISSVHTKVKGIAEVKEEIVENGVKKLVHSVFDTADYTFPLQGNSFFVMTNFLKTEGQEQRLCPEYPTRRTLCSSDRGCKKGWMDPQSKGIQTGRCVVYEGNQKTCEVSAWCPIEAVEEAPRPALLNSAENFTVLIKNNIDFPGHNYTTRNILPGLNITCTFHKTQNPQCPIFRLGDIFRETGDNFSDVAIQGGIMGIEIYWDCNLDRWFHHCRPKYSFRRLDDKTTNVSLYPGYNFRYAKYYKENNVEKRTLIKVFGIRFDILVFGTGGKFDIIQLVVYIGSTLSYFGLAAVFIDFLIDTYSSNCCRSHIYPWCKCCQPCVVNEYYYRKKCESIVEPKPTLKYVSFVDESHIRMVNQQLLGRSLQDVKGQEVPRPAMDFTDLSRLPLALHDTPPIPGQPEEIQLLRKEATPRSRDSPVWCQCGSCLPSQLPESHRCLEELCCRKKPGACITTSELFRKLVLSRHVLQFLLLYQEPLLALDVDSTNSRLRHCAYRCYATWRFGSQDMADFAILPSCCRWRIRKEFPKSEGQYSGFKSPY

P2X purinoceptor 2 [9] = biological target: T6, P2X purinoceptor 2 (Rattus norvegicus, UniProt P49653); test: Antagonist activity against recombinant rat receptor P2X purinoceptor 2 (P2X2) at 10 uM, expressed in Xenopus oocytes; type: functional, cell-based, Oocyte
T6 sequence (P49653 whole entry): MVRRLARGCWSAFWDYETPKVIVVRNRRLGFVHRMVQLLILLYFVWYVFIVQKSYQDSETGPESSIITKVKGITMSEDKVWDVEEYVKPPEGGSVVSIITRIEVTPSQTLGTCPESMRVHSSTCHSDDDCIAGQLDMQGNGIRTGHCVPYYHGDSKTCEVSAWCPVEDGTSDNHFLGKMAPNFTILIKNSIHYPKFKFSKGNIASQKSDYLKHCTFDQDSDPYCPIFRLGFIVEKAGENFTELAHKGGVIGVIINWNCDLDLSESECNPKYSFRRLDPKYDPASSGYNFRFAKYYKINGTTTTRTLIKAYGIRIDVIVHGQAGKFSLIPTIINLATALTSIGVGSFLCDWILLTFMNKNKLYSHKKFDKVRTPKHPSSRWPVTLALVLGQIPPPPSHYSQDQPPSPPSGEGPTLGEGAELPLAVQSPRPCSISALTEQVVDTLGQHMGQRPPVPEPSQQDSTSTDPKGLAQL

P2Y purinoceptor 4 = P2Y purinoceptor 4 (Homo sapiens, UniProt P51582); test: The compound was evaluated for antagonist activity against phospholipase C coupled recombinant human P2Y purinoceptor 4 (P2Y4); type: functional
P2Y purinoceptor 4, sequence (P51582 whole entry): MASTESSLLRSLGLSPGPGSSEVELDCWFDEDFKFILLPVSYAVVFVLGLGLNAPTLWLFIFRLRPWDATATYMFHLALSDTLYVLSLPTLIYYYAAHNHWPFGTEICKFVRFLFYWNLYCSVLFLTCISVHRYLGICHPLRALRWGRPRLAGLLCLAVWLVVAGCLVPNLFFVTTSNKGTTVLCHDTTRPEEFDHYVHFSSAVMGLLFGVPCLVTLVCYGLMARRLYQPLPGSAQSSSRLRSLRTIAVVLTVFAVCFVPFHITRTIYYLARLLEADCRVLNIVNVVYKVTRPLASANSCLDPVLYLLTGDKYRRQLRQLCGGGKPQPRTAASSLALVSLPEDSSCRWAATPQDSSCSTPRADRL

P2Y purinoceptor 12, sequence (Q9EPX4 whole entry): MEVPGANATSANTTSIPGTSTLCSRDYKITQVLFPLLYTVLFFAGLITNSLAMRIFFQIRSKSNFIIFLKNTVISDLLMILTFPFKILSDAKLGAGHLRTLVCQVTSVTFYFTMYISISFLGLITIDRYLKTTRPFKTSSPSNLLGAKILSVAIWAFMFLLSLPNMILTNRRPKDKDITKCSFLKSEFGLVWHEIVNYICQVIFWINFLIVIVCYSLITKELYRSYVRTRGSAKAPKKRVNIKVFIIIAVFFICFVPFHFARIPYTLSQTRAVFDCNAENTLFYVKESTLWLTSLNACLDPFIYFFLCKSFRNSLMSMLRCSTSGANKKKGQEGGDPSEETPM

| SMILES | EC50 (P2Y purinoceptor 12) | EC50 (P2Y purinoceptor 2) | EC50 (P2X purinoceptor 2 [1]) | EC50 (P2X purinoceptor 4 [2]) | EC50 (P2X purinoceptor 6) | EC50 (P2X purinoceptor 1 [3]) | EC50 (P2X purinoceptor 3 [4]) | EC50 (P2X purinoceptor 5) | EC50 (P2X purinoceptor 1 [5]) | IC50 (P2X purinoceptor 3 [6]) | EC50 (P2Y purinoceptor 6) | EC50 (P2X purinoceptor 4 [7]) | IC50 [8] | EC50 (P2X purinoceptor 2 [9]) | EC50 (P2Y purinoceptor 4) |
| --- | --- | --- | --- | --- | --- | --- | --- | --- | --- | --- | --- | --- | --- | --- | --- |
| Nc1ncnc2c1ncn2[C@@H]1O[C@H](COP(=O)(O)OP(=O)(O)O)[C@@H](O)[C@H]1O [ADENOSINE DIPHOSPHATE] | 0.069 µM | > 100 µM | > 100 µM | 28 µM | 11 µM | 10 µM | > 100 µM | 18 µM | – | – | – | – | – | – | – |
| Cc1nc(/N=N/c2cc(S(=O)(=O)O)ccc2S(=O)(=O)O)c(COP(=O)(O)O)c(C=O)c1O [ISOPPADS] | – | – | – | – | – | – | – | – | 0.043 µM | 0.084 µM | – | – | – | – | – |
| CNc1ncnc2c1ncn2[C@H]1C[C@H](OP(=O)(O)O)[C@@H](COP(=O)(O)O)O1 | > 100 µM | > 100 µM | – | – | – | 1.15 µM | – | – | – | – | > 100 µM | > 10 µM | > 30 µM | > 10 µM | > 100 µM |
